Source: patent US20240409585A1, “MACROCYCLIC IMMUNOMODULATORS” (priority 2021, published 2024)
Numbered stars: 1 amine (or outer) side, 2 acyl side, 3 side chain; on linkers, the order of the positions; unused ones are H or OH. Bridge positions count the residues as written; N and C are the ends. Square brackets hold non-standard residues; d marks the D form. Peptide text beside a SMILES is read from it. * marks the point of attachment. Phe(3-CF3) = N[C@@H](Cc1cccc(C(F)(F)F)c1)C(=O)O; Ala(morpholin-4-yl) = N[C@@H](CN1CCOCC1)C(=O)O; Phe(4-COOH) = N[C@@H](Cc1ccc(C(=O)O)cc1)C(=O)O; Bip = N[C@@H](Cc1ccc(-c2ccccc2)cc1)C(=O)O; Abu(3R-NH2) = C[C@@H](N)[C@H](N)C(=O)O; Phe(3-Me) = Cc1cccc(C[C@H](N)C(=O)O)c1; Val(3-OH) = CC(C)(O)[C@H](N)C(=O)O; hPhe = N[C@@H](CCc1ccccc1)C(=O)O; Cha = N[C@@H](CC1CCCCC1)C(=O)O; Suc = O=C(CCC(=O)[*:2])[*:1]; Carboxymethyl = O=C(O)C*; NMeA = CN[C@@H](C)C(=O)O; Orn = NCCC[C@H](N)C(=O)O; Dab = NCC[C@H](N)C(=O)O; Dap = NC[C@H](N)C(=O)O

Target: T1, Alexa fluor-647 labeled human PD-L1-Ig binding to Jurkat cell line over-expressing human PD-1 (Homo sapiens, UniProt Q15116)
T1 construct: expressed in transfected cells; host or cells: Jurkat
Assay: Jurkat-PD-1 Cell Binding High-Content Screening Assay (CBA): Method 3 (Alexa fluor-647 labeled PD-L1-Ig)
Details: Jurkat-PD-1 cells, Alexa fluor-647 labeled PD-L1-Ig 177 nM; head μM; read-out: CBA Method 3 μM
Summary of the method: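 Jurkat cells over-expressing human PD-1 in RPMI/10% FCS were preincubated 2 h at 37 °C with compound, then exposed 1 h to Alexa fluor-647 labeled human PD-L1-Ig (177 nM final). Cells fixed in 4% paraformaldehyde with Hoechst 33342 and binding quantified by high-content imaging.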

T1 sequence (Q15116 25-288): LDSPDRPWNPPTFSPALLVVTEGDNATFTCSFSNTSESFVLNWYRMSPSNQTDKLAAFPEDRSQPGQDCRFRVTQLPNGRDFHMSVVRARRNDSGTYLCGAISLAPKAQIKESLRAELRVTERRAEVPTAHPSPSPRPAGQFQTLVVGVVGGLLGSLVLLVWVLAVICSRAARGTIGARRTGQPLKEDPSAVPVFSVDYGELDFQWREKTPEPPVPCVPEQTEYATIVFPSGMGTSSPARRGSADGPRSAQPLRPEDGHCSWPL

IC50 [µM] | SMILES
0.26 | Cc1cccc(C[C@@H]2NC(=O)[C@H](CC(=O)O)NC(=O)[C@H](Cc3ccc(OCC(=O)O)cc3)NC(=O)[C@H](CN3CCOCC3)NC(=O)CSC[C@@H](C(=O)N[C@@H](CCN)C(N)=O)NC(=O)[C@H](CCCN)NC(=O)[C@H](C(C)C)NC(=O)[C@H](CC3CCCCC3)NC(=O)[C@H](CCN)NC(=O)[C@@H](CC(C)C)NC(=O)[C@H](C)N(C)C(=O)[C@H](CCC(N)=O)NC(=O)[C@H](Cc3ccc(-c4ccccc4)cc3)NC(=O)[C@H](CCc3ccccc3)NC2=O)c1 [Example 5217] ({CH2CO}-[Ala(morpholin-4-yl)]Y(Carboxymethyl)D[Phe(3-Me)][hPhe][Bip]Q[NMeA][dL][Dab][Cha]V[Orn]C[Dab]-NH2; thioether N-14)
0.02 | Cc1cccc(C[C@@H]2NC(=O)[C@H](CC(=O)O)NC(=O)[C@H](Cc3ccc(OCC(=O)O)cc3)NC(=O)[C@H](CC3CCCCC3)NC(=O)CSC[C@@H](C(=O)N[C@@H](CCN)C(N)=O)NC(=O)[C@H](CCCN)NC(=O)[C@H](C(C)C)NC(=O)[C@H](CC3CCCCC3)NC(=O)[C@H](CCN)NC(=O)[C@@H](CC(C)C)NC(=O)[C@H](C)N(C)C(=O)[C@H](CCC(N)=O)NC(=O)[C@H](Cc3ccc(-c4ccccc4)cc3)NC(=O)[C@H](CCc3ccccc3)NC2=O)c1 [Example 5218] ({CH2CO}-[Cha]Y(Carboxymethyl)D[Phe(3-Me)][hPhe][Bip]Q[NMeA][dL][Dab][Cha]V[Orn]C[Dab]-NH2; thioether N-14)
0.1 | CC(C)C[C@H]1NC(=O)[C@H](C)N(C)C(=O)[C@H](CCC(N)=O)NC(=O)[C@H](Cc2ccc(-c3ccccc3)cc2)NC(=O)[C@H](CCc2ccccc2)NC(=O)[C@H](Cc2cccc(C(F)(F)F)c2)NC(=O)[C@H](CC(=O)O)NC(=O)[C@H](Cc2ccc(OCC(=O)O)cc2)NC(=O)[C@H]([C@@H](C)N)NC(=O)CSC[C@@H](C(=O)N[C@@H](CCN)C(N)=O)NC(=O)[C@H](CCCN)NC(=O)[C@H](C(C)C)NC(=O)[C@H](CC2CCCCC2)NC(=O)[C@H](CCN)NC1=O [Example 5219] ({CH2CO}-[Abu(3R-NH2)]Y(Carboxymethyl)D[Phe(3-CF3)][hPhe][Bip]Q[NMeA][dL][Dab][Cha]V[Orn]C[Dab]-NH2; thioether N-14)
0.02 | Cc1cccc(C[C@@H]2NC(=O)[C@H](CC(=O)O)NC(=O)[C@H](Cc3ccc(OCC(=O)O)cc3)NC(=O)[C@H](CC3CCCCC3)NC(=O)CSC[C@@H](C(=O)N[C@@H](CCN)C(N)=O)NC(=O)[C@H](CCC(N)=O)NC(=O)[C@H](C(C)C)NC(=O)[C@H](CC3CCCCC3)NC(=O)[C@H](CCN)NC(=O)[C@@H](CC(C)C)NC(=O)[C@H](C)N(C)C(=O)[C@H](CCC(N)=O)NC(=O)[C@H](Cc3ccc(-c4ccccc4)cc3)NC(=O)[C@H](CCc3ccccc3)NC2=O)c1 [Example 5222] ({CH2CO}-[Cha]Y(Carboxymethyl)D[Phe(3-Me)][hPhe][Bip]Q[NMeA][dL][Dab][Cha]VQC[Dab]-NH2; thioether N-14)
0.05 | CC(C)C[C@H]1NC(=O)[C@H](C)N(C)C(=O)[C@H](CCC(N)=O)NC(=O)[C@H](Cc2ccc(-c3ccccc3)cc2)NC(=O)[C@H](CCc2ccccc2)NC(=O)[C@H](Cc2cccc(C(F)(F)F)c2)NC(=O)[C@H](CC(=O)O)NC(=O)[C@H](Cc2ccc(OCC(=O)O)cc2)NC(=O)[C@H]([C@@H](C)N)NC(=O)CSC[C@@H](C(=O)N[C@@H](CCN)C(N)=O)NC(=O)[C@H](CCC(N)=O)NC(=O)[C@H](C(C)C)NC(=O)[C@H](CC2CCCCC2)NC(=O)[C@H](CCN)NC1=O [Example 5223] ({CH2CO}-[Abu(3R-NH2)]Y(Carboxymethyl)D[Phe(3-CF3)][hPhe][Bip]Q[NMeA][dL][Dab][Cha]VQC[Dab]-NH2; thioether N-14)
0.07 | CC(C)C[C@H]1NC(=O)[C@H](C)N(C)C(=O)[C@H](CCC(N)=O)NC(=O)[C@H](Cc2ccc(-c3ccccc3)cc2)NC(=O)[C@H](CCc2ccccc2)NC(=O)[C@H](Cc2cccc(C(F)(F)F)c2)NC(=O)[C@H](CC(=O)O)NC(=O)[C@H](Cc2ccc(OCC(=O)O)cc2)NC(=O)[C@H](CC2CCCCC2)NC(=O)CSC[C@@H](C(=O)N[C@@H](CCN)C(N)=O)NC(=O)[C@H](CO)NC(=O)[C@H](C(C)(C)O)NC(=O)[C@H](CC2CCCCC2)NC(=O)[C@H](CCN)NC1=O [Example 5226] ({CH2CO}-[Cha]Y(Carboxymethyl)D[Phe(3-CF3)][hPhe][Bip]Q[NMeA][dL][Dab][Cha][Val(3-OH)]SC[Dab]-NH2; thioether N-14)

Same assay, conditions: Jurkat-PD-1 cells, Alexa fluor-647 labeled PD-L1-Ig 177 nM; nM; read-out: CBA Method 3

IC50 [µM] | SMILES
0.0024 | CC(C)C[C@H]1NC(=O)[C@H](C)N(C)C(=O)[C@H](CCC(N)=O)NC(=O)[C@H](Cc2ccc(-c3ccccc3)cc2)NC(=O)[C@H](Cc2ccc(OCC(=O)O)cc2)NC(=O)[C@H](Cc2cccc(C(F)(F)F)c2)NC(=O)[C@H](CC(=O)O)NC(=O)[C@H](Cc2ccc(OCC(=O)O)cc2)NC(=O)[C@H]([C@@H](C)N)NC(=O)CSC[C@@H](C(=O)N[C@@H](CCN)C(N)=O)NC(=O)[C@H](CCCN)NC(=O)[C@H](C(C)C)NC(=O)[C@H](CC2CCCCC2)NC(=O)[C@H](CCN)NC1=O [Example 5220] ({CH2CO}-[Abu(3R-NH2)]Y(Carboxymethyl)D[Phe(3-CF3)]Y(Carboxymethyl)[Bip]Q[NMeA][dL][Dab][Cha]V[Orn]C[Dab]-NH2; thioether N-14)
0.0035 | Cc1cccc(C[C@@H]2NC(=O)[C@H](CC(=O)O)NC(=O)[C@H](Cc3ccc(OCC(=O)O)cc3)NC(=O)[C@H](CN3CCOCC3)NC(=O)CSC[C@@H](C(=O)N[C@@H](CCN)C(N)=O)NC(=O)[C@H](CCC(N)=O)NC(=O)[C@H](C(C)C)NC(=O)[C@H](CC3CCCCC3)NC(=O)[C@H](CCN)NC(=O)[C@@H](CC(C)C)NC(=O)[C@H](C)N(C)C(=O)[C@H](CCC(N)=O)NC(=O)[C@H](Cc3ccc(-c4ccccc4)cc3)NC(=O)[C@H](Cc3ccc(OCC(=O)O)cc3)NC2=O)c1 [Example 5224] ({CH2CO}-[Ala(morpholin-4-yl)]Y(Carboxymethyl)D[Phe(3-Me)]Y(Carboxymethyl)[Bip]Q[NMeA][dL][Dab][Cha]VQC[Dab]-NH2; thioether N-14)
0.0015 | CC(C)C[C@H]1NC(=O)[C@H](C)N(C)C(=O)[C@H](CCC(N)=O)NC(=O)[C@H](Cc2ccc(-c3ccccc3)cc2)NC(=O)[C@H](CCc2ccccc2)NC(=O)[C@H](Cc2cccc(C(F)(F)F)c2)NC(=O)[C@H](CC(=O)O)NC(=O)[C@H](Cc2ccc(OCC(=O)O)cc2)NC(=O)[C@H]([C@@H](C)N)NC(=O)CSC[C@@H](C(=O)N[C@@H](CCN)C(N)=O)NC(=O)[C@H](CO)NC(=O)[C@H](C(C)(C)O)NC(=O)[C@H](CC2CCCCC2)NC(=O)[C@H](CCN)NC1=O [Example 5227] ({CH2CO}-[Abu(3R-NH2)]Y(Carboxymethyl)D[Phe(3-CF3)][hPhe][Bip]Q[NMeA][dL][Dab][Cha][Val(3-OH)]SC[Dab]-NH2; thioether N-14)
0.0008 | CC(C)C[C@H]1NC(=O)[C@H](C)N(C)C(=O)[C@H](Cc2ccc(C(=O)O)cc2)NC(=O)[C@H](Cc2ccc(-c3ccccc3)cc2)NC(=O)[C@H](Cc2ccc(C(=O)O)cc2)NC(=O)[C@H](Cc2cccc(C(F)(F)F)c2)NC(=O)[C@H](CC(=O)O)NC(=O)[C@H](Cc2ccc(C(=O)O)cc2)NC(=O)[C@H](CC2CCCCC2)NC(=O)CSC[C@@H](C(=O)N[C@@H](CCN)C(N)=O)NC(=O)[C@H](CNC(=O)CCC(=O)O)NC(=O)[C@H](C(C)C)NC(=O)[C@H](CC2CCCCC2)NC(=O)[C@H](CCN)NC1=O [Example 5228] ({CH2CO}-[Cha][Phe(4-COOH)]D[Phe(3-CF3)][Phe(4-COOH)][Bip][Phe(4-COOH)][NMeA][dL][Dab][Cha]V[Dap](Suc)C[Dab]-NH2; thioether N-14)
